Activity calls are given as the source filed them.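 How the source made its calls: active means compounds giving half or more protection of infected cells from virus-caused growth loss, again on retest; inactive means the rest.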
Tested on: CEM cells HIV-1 protection, formazan growth assay
Assay: NCI AIDS Antiviral Assay
Settings: for IC50: measured here: growth of uninfected CEM cells
Outline: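 Steps: treat uninfected and HIV-1-infected human CEM cells at five drug levels; quantify growth by soluble formazan; retest any compound reaching 50% protection; classify actives from the retest.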

Compound: CC(C)CC(F)(C(N)=O)C(N)=O
- EC50: > 200 µM
- IC50: > 200 µM

Compound: C=CCOC(=O)C1CC2OC2CC1C(=O)OCC=C (stereo not drawn)
- EC50: > 200 µM
- IC50: > 200 µM

Compound: COC(=O)c1coc(CC/C(C)=C/c2ccccc2)n1
- EC50: > 200 µM
- IC50: 126 µM

Compound: CN(C)c1ccc2c(c1)C(=O)N(OS(=O)(=O)c1ccc([N+](=O)[O-])cc1)C2=O
- EC50: > 47.9 µM
- IC50: 20.4 µM

Compound: CCOC(=O)C1SC(=Nc2ccccc2)N=C1C (stereo not drawn)
- outcome: inactive

Compound: COC(=O)NC(=O)c1cn(C2CCCCC2)c(=O)[nH]c1=O
- EC50: > 123 µM
- IC50: > 123 µM

Compound: CC1(C)CC(=O)C(/C=N/C(=S)NCCc2ccccc2)=C(O)C1
- EC50: > 200 µM
- IC50: > 200 µM

Compound: N=C(N)n1ncc(Cl)c(Cl)c1=O
- EC50: > 91.2 µM
- IC50: 0.407 µM

Compound: Cc1cc2c(c(S(=O)(=O)c3ccc(Cl)cc3[N+](=O)[O-])c1)NCCC2
- EC50: > 75.9 µM
- IC50: 27.5 µM

Compound: N#C/C(=C\c1ccc(O)c(O)c1)C(=O)NCCCNC(=O)/C(C#N)=C/c1ccc(O)c(O)c1
- EC50: > 200 µM
- IC50: 66.1 µM

Compound: O=C(O)c1c2c(cc3c(=O)c4ccccc4[nH]c13)CCCC2
- EC50: > 617 µM
- IC50: 85.1 µM

Compound: N=c1c2c(-c3ccccc3)c[nH]c2ncn1N
- EC50: > 200 µM
- IC50: > 200 µM

Compound: O=S1(=O)OCCOS(=O)(=O)C1Cc1nc2ccccc2[nH]1
- EC50: > 200 µM
- IC50: 32.4 µM

Compound: COc1ccc(N/C=C2\C(=O)CCc3c2oc2cc(Cl)c(O)c(Cl)c32)cc1
- EC50: > 200 µM
- IC50: 28.8 µM

Compound: Cc1nn(C(=O)CC(=O)Nc2ccc(Cl)cc2)c(C)c1N=Nc1ccccc1C(=O)O
- EC50: > 42.7 µM
- IC50: > 42.7 µM

Compound: CCCN(CCC)C(=O)COc1cc2c(O)c3c(O)c(C)c4c(c13)C(=O)C(C)(O/C=C/C(OC)C(C)C(OC(C)=O)C(C)C(O)C(C)C(O)C(C)/C=C/C=C(\C)C(=O)N2)O4 (stereo not drawn)
- outcome: inactive

Compound: CCCN(CCC)c1cc2c(cc1F)c(=O)c(C(=O)O)cn2-c1ccc(N2CCN(C)CC2)cn1
- EC50: > 200 µM
- IC50: 14.8 µM

Compound: CC[N+](C)(C)Cc1ccccc1Br
- EC50: > 200 µM
- IC50: 182 µM

Compound: CSC1=N/C(=C\c2ccco2)C(=O)N1CN1CCOCC1
- EC50: > 200 µM
- IC50: 39.8 µM

Compound: CON(C(=O)OC(C)(C)C)c1ccccc1
- EC50: 61.7 µM
- IC50: > 200 µM

Compound: CCOC(=O)c1cc2sc(NC(=O)c3cccs3)nc2o1
- outcome: inactive

Compound: Cc1cc(C)c2c(c1N)C(=O)CCO2
- outcome: inactive

Compound: Cc1cn(C2COC(C)(CO)O2)c(=O)[nH]c1=O (stereo not drawn)
- EC50: > 200 µM
- IC50: > 200 µM

Compound: O=[N+]([O-])c1ccc(NN=C2CN3CCN(C2)c2ccccc23)c([N+](=O)[O-])c1
- EC50: > 200 µM
- IC50: 162 µM

Compound: NS(=O)(=O)c1nnc(NS(=O)(=O)c2ccc(Cl)cc2)s1
- EC50: > 200 µM
- IC50: > 200 µM

Compound: CC1OC(O[C@H]2/C=C/C=C/C=C/C=C/C=C/C=C/C=C/[C@H](C)[C@@H](O)[C@@H](C)[C@H](C)OC(=O)C[C@H](O)C[C@H](O)CC[C@@H](O)[C@H](O)C[C@H](O)C[C@]3(O)C[C@H](O)[C@@H](C(=O)O)[C@H](C2)O3)C(O)C(N)C1O (stereo partly drawn)
- EC50: > 4.9 µM

Compound: CCCCCc1c2nc(c(CCCCC)c3ccc([nH]3)c(CCCCC)c3ccc([nH]3)c(CCCCC)c3nc1C=C3)C=C2
- EC50: > 200 µM
- IC50: > 200 µM

Compound: O=C(CCC(=O)Nc1ccc(Cl)cc1)CC(=O)c1ccc2ccccc2c1
- EC50: > 245 µM
- IC50: > 245 µM

Compound: S=c1[nH]nc(C23CC4CC(CC(C4)C2)C3)n1-c1ccc(Cl)cc1
- EC50: > 200 µM
- IC50: 23.4 µM

Compound: O=C(c1ccc([N+](=O)[O-])cc1)N1CCCC1
- EC50: > 200 µM
- IC50: > 200 µM

Compound: CCOP(C)(=O)C(Nc1ccc(F)cc1)c1ccc(F)cc1 (stereo not drawn)
- EC50: > 200 µM
- IC50: 166 µM

Compound: CCOP(=O)(OCC)C(Nc1ccc(F)cc1)c1cccc([N+](=O)[O-])c1 (stereo not drawn)
- EC50: > 200 µM
- IC50: 55 µM

Compound: CCn1c(N)c(N=O)c(=O)n(C)c1=O
- EC50: > 200 µM
- IC50: > 200 µM

Compound: N=c1ccn2c(n1)OC1C(O)C(CCl)OC12 (stereo not drawn)
- EC50: > 200 µM
- IC50: 0.145 µM

Compound: C/C=C/[C@@H](C(=O)OC)N1C(=O)c2ccccc2[C@H]1O
- EC50: > 200 µM
- IC50: > 200 µM

Compound: COc1cccc(C[C@H]2C(=O)OC[C@@H]2Cc2ccc(OC)c(OC)c2)c1
- EC50: > 200 µM
- IC50: 57.5 µM

Compound: CCOC(=O)c1cnc2sc3ccc4ccccc4c3n2c1=O
- EC50: > 27.5 µM
- IC50: > 27.5 µM

Compound: NC(=O)OCC(COc1ccc(Cl)cc1)OC(=O)c1ccccc1Cl (stereo not drawn)
- EC50: > 93.3 µM
- IC50: 70.8 µM

Compound: CC(C)CC1[C@@H](OCc2ccccc2)COS(=O)N1Cc1ccccc1 (stereo partly drawn)
- EC50: > 200 µM
- IC50: 26.3 µM

Compound: C#CCN1CCCC(O)C1 (stereo not drawn)
- outcome: inactive

Compound: CCOC(=O)c1ccc(-n2c(SCC)nc3sc(C)c(C)c3c2=O)cc1
- EC50: > 200 µM
- IC50: > 200 µM

Compound: NC(=O)c1ccc2c(c1)-c1nc-2nc2[n-]c(nc3nc(nc4[n-]c(n1)c1ccc(C(N)=O)cc41)-c1ccc(C(N)=O)cc1-3)c1ccc(C(N)=O)cc21.[Co+2]
- EC50: > 9.77 µM
- IC50: 6.61 µM

Compound: Cn1cc(NC(=O)c2cc(NC(=O)CCCCCC(=O)Nc3cc(C(=O)Nc4cc(C(=O)NCCC(=N)N)n(C)c4)n(C)c3)cn2C)cc1C(=O)NCCC(=N)N
- EC50: 53.7 µM
- IC50: 67.6 µM

Compound: CCOC(=O)c1c2c3c(cccc3[nH]c1=O)Sc1ncccc1-2
- EC50: > 200 µM
- IC50: 15.8 µM

Compound: Nc1[nH]nc2nc3ccc(C(F)(F)F)cc3nc12
- EC50: > 200 µM
- IC50: 29.5 µM

Compound: O=C(NC(C(F)(F)F)(C(F)(F)F)P(=O)(Cc1ccccc1)Cc1ccccc1)C(C(F)(F)F)C(F)(F)F
- outcome: inactive

Compound: O=c1/c(=C/c2ccccc2)sc2nc(-c3ccccc3)nn12
- EC50: > 200 µM
- IC50: > 200 µM

Compound: CC1(C)CCOC(=O)C(Cl)CC1Cl (stereo not drawn)
- EC50: > 200 µM
- IC50: > 200 µM

Compound: O=S(=O)(O)c1cc(O)c2c(O)cc(S(=O)(=O)O)c(N=Nc3ccc(/C=C/c4ccc(N=Nc5c(S(=O)(=O)O)cc(O)c6c(O)cc(S(=O)(=O)O)cc56)cc4S(=O)(=O)O)c(S(=O)(=O)O)c3)c2c1
- EC50: 15.5 µM
- IC50: 75.9 µM

Compound: C/C(=N/NC(=O)C[N+](C)(C)C)C(CN(C)C)C(=O)Nc1ccccc1 (stereo not drawn)
- EC50: > 13.5 µM
- IC50: > 13.5 µM

Compound: [Cl][Pt+2][Cl].[NH-]C1CCCC1[NH-] (stereo not drawn)
- EC50: > 200 µM
- IC50: 49 µM

Compound: O/N=C1\CSc2ccccc2C1
- EC50: > 200 µM
- IC50: > 200 µM

Compound: CC(C)(C)C1=CC(=C2C(=O)C(=O)c3ccccc3C2=O)C=C(C(C)(C)C)C1=O
- EC50: > 6.92 µM
- IC50: > 6.92 µM

Compound: CO/C(N)=C(\C#N)N=Cc1cccnc1
- EC50: > 200 µM
- IC50: > 200 µM

Compound: CCOC(=O)COc1cccc2occc(=O)c12
- outcome: inactive

Compound: CCCCNC(=S)Nn1c(-c2ccccc2)nc2ccccc2c1=O
- EC50: > 20.4 µM
- IC50: > 20.4 µM

Compound: Cc1nc(N)nc(N)c1N1CCN(c2ccc(S(=O)(=O)N(Cc3ccccc3)Cc3ccccc3)cc2)CC1
- EC50: 0.0501 µM
- IC50: 0.132 µM

Compound: CC1=CC(=O)CCC2(C)C1CC[C@@H]2OC=O (stereo partly drawn)
- outcome: inactive

Compound: COc1ccc(OC)c(-c2cc(=O)c3c(OC)c(OC)c(OC)c(OC)c3o2)c1
- EC50: > 200 µM
- IC50: 29.5 µM

Compound: CC(C)(C)C1=Cc2cc3cc(C(C)(C)C)[nH]c(=O)c3cc2S(=O)(=O)N1
- EC50: > 7.59 µM
- IC50: > 7.59 µM

Compound: CCCCC1Sc2cc(OC)cc(N)c2NC1=O (stereo not drawn)
- EC50: > 200 µM
- IC50: 158 µM

— PubChem BioAssay AID179 (DTP/NCI, 2004)
